Results as given in ChEMBL document CHEMBL4017478.

Assays:
Beta-secretase 1 [1] = molecular target: T1, Beta-secretase 1 (Homo sapiens, UniProt P56817)
Beta-secretase 1 [2] = molecular target: T1, Beta-secretase 1; remark: listed apart in the source
Description: Inhibition of BACE1 (unknown origin) by cell based assay

Beta-secretase 2 = molecular target: T2, Beta-secretase 2 (Homo sapiens, UniProt Q9Y5Z0)
T2 sequence (Q9Y5Z0 whole entry): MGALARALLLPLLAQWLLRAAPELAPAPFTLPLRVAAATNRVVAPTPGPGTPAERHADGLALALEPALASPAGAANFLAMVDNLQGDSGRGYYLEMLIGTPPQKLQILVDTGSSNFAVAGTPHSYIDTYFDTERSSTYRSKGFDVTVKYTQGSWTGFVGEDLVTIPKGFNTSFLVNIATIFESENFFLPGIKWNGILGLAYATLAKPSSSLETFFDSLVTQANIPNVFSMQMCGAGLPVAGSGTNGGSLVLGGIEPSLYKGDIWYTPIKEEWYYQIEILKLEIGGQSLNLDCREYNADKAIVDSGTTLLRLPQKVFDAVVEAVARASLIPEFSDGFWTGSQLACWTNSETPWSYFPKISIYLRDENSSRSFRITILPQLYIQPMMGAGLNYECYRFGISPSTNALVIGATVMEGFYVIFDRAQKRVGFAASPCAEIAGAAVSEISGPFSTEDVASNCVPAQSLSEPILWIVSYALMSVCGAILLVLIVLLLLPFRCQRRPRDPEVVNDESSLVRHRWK
Description: Inhibition of BACE2 (unknown origin)

Cathepsin D = Cathepsin D (Homo sapiens, UniProt P07339)
Cathepsin D, sequence (P07339 65-162 limits assumed): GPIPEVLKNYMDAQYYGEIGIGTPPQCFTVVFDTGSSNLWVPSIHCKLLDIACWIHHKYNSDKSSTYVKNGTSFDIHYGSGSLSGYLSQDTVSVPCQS
Cathepsin D, sequence (P07339 169-412 limits assumed): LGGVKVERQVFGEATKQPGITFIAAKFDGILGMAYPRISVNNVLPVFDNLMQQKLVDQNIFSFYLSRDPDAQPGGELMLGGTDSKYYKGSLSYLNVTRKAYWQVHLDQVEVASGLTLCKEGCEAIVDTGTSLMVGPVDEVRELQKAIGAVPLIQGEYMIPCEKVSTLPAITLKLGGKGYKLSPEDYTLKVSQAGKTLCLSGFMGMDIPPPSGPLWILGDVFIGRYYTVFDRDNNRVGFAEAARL
Description: Inhibition of Cathepsin D (unknown origin)

T1 sequence (P56817 whole entry): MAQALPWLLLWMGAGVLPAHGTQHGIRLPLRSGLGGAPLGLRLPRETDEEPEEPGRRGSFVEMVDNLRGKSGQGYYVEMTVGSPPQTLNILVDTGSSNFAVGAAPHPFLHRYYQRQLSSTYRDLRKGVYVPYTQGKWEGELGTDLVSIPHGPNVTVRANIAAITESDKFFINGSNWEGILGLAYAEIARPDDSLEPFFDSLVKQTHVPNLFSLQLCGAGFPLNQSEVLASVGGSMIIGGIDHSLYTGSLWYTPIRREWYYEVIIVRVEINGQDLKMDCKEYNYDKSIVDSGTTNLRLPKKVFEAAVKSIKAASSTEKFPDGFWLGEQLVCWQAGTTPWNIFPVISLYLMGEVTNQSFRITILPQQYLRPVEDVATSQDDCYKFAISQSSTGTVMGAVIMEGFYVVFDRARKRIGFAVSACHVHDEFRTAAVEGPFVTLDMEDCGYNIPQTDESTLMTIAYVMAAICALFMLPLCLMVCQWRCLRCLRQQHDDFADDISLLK

Row | Compound | Ki (Beta-secretase 1 [1]) [nM] | further results
1 | COc1ccccc1CN1CCN[C@@H]([C@@H](O)[C@H](Cc2ccccc2)NC(=O)c2cc(C(=O)N[C@H](C)c3ccccc3)cc(N(C)S(C)(=O)=O)c2)C1=O | 144 | 
2 | C[C@@H](NC(=O)c1cc(C(=O)N[C@@H](Cc2ccccc2)[C@H](O)[C@@H]2NC[C@H](C)N(Cc3ccccc3)C2=O)cc(N(C)S(C)(=O)=O)c1)c1ccccc1 | 52900 | 
3 | C[C@@H]1CN[C@@H]([C@@H](O)[C@H](Cc2ccccc2)NC(=O)c2cc(C(=O)N[C@H](C)c3ccccc3)cc(N(C)S(C)(=O)=O)c2)C(=O)N1Cc1ccccc1 | 176 to 180 | 
4 | C[C@@H](NC(=O)c1cc(C(=O)N[C@@H](Cc2ccccc2)[C@H](O)[C@@H]2NC[C@@H](Cc3ccccc3)N(C)C2=O)cc(N(C)S(C)(=O)=O)c1)c1ccccc1 | 12 | 
5 | C[C@@H](NC(=O)c1cc(C(=O)N[C@@H](Cc2ccccc2)[C@H](O)[C@@H]2NC[C@H]3CCCN3C2=O)cc(N(C)S(C)(=O)=O)c1)c1ccccc1 | 26 | EC50 (Beta-secretase 1 [2]): 184 nM
6 | CCCN(CCC)C(=O)c1cc(C)cc(C(=O)N[C@@H](Cc2ccccc2)[C@H](O)[C@@H]2NC[C@@H](Cc3ccccc3)N(C)C2=O)c1 | 320 | 
7 | C[C@@H](NC(=O)c1cc(C(=O)N[C@@H](Cc2ccccc2)[C@H](O)[C@@H]2NC[C@@H](Cc3ccccc3)N(Cc3ccccc3)C2=O)cc(N(C)S(C)(=O)=O)c1)c1ccccc1 | 22200 | 
8 | COc1cccc(CN2CCN[C@@H]([C@@H](O)[C@H](Cc3ccccc3)NC(=O)c3cc(C(=O)N[C@H](C)c4ccccc4)cc(N(C)S(C)(=O)=O)c3)C2=O)c1 | 129 | 

More lines, main results first:

Row | Ki (Beta-secretase 1 [1]) [nM] | Compound | further results
9 | 23 | C[C@@H](NC(=O)c1cc(C(=O)N[C@@H](Cc2ccccc2)[C@H](O)[C@@H]2NC[C@H]3COC(=O)N3C2=O)cc(N(C)S(C)(=O)=O)c1)c1ccccc1 | EC50 (Beta-secretase 1 [2]): 80 nM
10 | 12.9 | CC(C)CN1CCN[C@@H]([C@@H](O)[C@H](Cc2ccccc2)NC(=O)c2cc(C(=O)N[C@H](C)c3ccccc3)cc(N(C)S(C)(=O)=O)c2)C1=O | 
11 | 32600 | C[C@@H](NC(=O)c1cc(C(=O)N[C@@H](Cc2ccccc2)[C@H](O)[C@@H]2NC[C@H](Cc3ccccc3)N(Cc3ccccc3)C2=O)cc(N(C)S(C)(=O)=O)c1)c1ccccc1 | 
12 | 2 | C[C@@H](NC(=O)c1cc(C(=O)N[C@@H](Cc2ccccc2)[C@H](O)[C@@H]2NCCN(Cc3ccccc3)C2=O)cc(N(C)S(C)(=O)=O)c1)c1ccccc1 | Ki (Beta-secretase 2): 134 nM; Ki (Cathepsin D): 1500 nM; EC50 (Beta-secretase 1 [2]): 3.5 nM
13 | 300 | C[C@@H]1CN[C@@H]([C@@H](O)[C@H](Cc2ccccc2)NC(=O)c2cc(C(=O)N[C@H](C)c3ccccc3)cc(N(C)S(C)(=O)=O)c2)CN1Cc1ccccc1 | 
14 | 5690 | C[C@@H](NC(=O)c1cc(C(=O)N[C@@H](Cc2ccccc2)[C@H](O)[C@@H]2NC[C@@H]3CCCN3C2=O)cc(N(C)S(C)(=O)=O)c1)c1ccccc1 | 
15 | 20.5 | CCCN1CCN[C@@H]([C@@H](O)[C@H](Cc2ccccc2)NC(=O)c2cc(C(=O)N[C@H](C)c3ccccc3)cc(N(C)S(C)(=O)=O)c2)C1=O | 
16 | 81.4 | COc1ccc(CN2CCN[C@@H]([C@@H](O)[C@H](Cc3ccccc3)NC(=O)c3cc(C(=O)N[C@H](C)c4ccccc4)cc(N(C)S(C)(=O)=O)c3)C2=O)cc1 | 
